Reference: patent publication US20230265151A1, “GIP/GLP1 CO-AGONIST COMPOUNDS” (priority 2020, published 2023)
Where two headings read alike, the source gives them in different places.

What was measured:
Type in all cases: cell-based
hGLP-1R = hGLP-1R (Homo sapiens, UniProt P43220); experiment: Functional cAMP formation (HTRF) in HEK-293 clonal cells expressing hGLP-1R, 0.1% bovine casein, without or with 1.0% human serum albumin; design: expressed in transfected cells; settings: for Emax: percent of maximal response to GLP-1(7-36)NH2; for EC50: cAMP, 0.1% bovine casein (no human serum albumin), geometric mean
hGLP-1R, sequence (P43220 24-463): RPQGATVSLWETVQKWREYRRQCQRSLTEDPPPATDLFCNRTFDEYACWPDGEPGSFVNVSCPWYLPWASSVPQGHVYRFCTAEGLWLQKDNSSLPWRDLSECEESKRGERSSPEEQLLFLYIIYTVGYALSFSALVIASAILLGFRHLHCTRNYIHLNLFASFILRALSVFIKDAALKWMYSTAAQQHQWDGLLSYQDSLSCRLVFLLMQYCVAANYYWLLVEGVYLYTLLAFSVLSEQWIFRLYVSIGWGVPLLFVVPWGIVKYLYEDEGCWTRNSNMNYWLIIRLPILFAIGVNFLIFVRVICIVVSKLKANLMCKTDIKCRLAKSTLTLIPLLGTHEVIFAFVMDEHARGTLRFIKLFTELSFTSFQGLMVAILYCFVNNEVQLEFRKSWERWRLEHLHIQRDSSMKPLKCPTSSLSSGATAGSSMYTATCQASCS
Method in brief: (§1)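 Cells were stimulated with peptide for 30 min at 37° C, then intracellular cAMP was measured by competitive HTRF (665/620 nm ratio) and converted to nM using a cAMP standard curve. Relative EC50 and Emax came from four-parameter logistic fits of percent maximal response against peptide concentration.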

hGCGR = biological target: T1, hGCGR (Homo sapiens, UniProt P47871); experiment: Functional cAMP formation (HTRF) in HEK-293 clonal cells expressing hGCGR, 0.1% bovine casein, without or with 1.0% human serum albumin
T1 construct: expressed in transfected cells
T1 sequence (P47871 26-477): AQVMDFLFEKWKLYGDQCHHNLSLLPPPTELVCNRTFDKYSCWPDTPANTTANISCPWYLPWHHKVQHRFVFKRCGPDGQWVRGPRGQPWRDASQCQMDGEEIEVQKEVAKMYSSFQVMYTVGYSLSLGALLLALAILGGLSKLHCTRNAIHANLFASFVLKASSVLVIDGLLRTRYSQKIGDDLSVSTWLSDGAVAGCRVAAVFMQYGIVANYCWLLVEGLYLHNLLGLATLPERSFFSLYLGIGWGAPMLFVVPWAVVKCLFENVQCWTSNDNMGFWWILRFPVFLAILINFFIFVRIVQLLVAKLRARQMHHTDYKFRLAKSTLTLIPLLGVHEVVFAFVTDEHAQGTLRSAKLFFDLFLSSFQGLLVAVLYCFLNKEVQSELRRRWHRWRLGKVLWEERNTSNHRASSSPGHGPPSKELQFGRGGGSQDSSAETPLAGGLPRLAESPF
Method in brief: as §1

hGIPR = biological target: T2, hGIPR (Homo sapiens, UniProt P48546); experiment: Functional cAMP formation (HTRF) in HEK-293 clonal cells expressing hGIPR, 0.1% bovine casein, without or with 1.0% human serum albumin; settings: for EC50: cAMP
T2 construct: expressed in transfected cells
T2 sequence (P48546 22-466): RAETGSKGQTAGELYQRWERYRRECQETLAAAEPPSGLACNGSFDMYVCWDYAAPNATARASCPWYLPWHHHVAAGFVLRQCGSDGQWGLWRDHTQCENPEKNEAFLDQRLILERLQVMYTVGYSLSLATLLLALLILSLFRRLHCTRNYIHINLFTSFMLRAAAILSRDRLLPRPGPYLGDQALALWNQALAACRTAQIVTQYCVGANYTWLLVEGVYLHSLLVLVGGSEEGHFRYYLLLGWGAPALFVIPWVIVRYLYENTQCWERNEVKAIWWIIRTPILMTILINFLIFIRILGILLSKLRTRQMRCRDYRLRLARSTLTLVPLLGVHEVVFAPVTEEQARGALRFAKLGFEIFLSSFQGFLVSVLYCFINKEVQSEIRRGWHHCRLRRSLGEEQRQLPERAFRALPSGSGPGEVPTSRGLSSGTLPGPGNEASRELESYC
Method in brief: as §1

Work on `CC[C@H](C)[C@H](NC(=O)[C@H](CC(C)C)NC(=O)[C@](C)(Cc1ccc(O)cc1)NC(=O)[C@@H](CCC(=O)O)NC(=O)[C@@H](NC(=O)[C@H](Cc1ccccc1)NC(=O)[C@H](CCCCNC(=O)COCCOCCNC(=O)CC[C@H](NC(=O)CCCCCCCCCCCCC(=O)O)C(=O)O)NC(=O)C(C)(C)NC(=O)[C@H](CCC(N)=O)NC(=O)[C@H](C)NC(=O)[C@H](CCCCNC(=O)COCCOCCNC(=O)CC[C@H](NC(=O)CCCCCCCCCCCCC(=O)O)C(=O)O)NC(=O)[C@H](CCCN)NC(=O)[C@H](CC(=O)O)NC(=O)[C@H](CC(C)C)NC(=O)[C@](C)(CC(C)C)NC(=O)[C@@H](NC(=O)C(C)(C)NC(=O)[C@H](Cc1ccc(O)cc1)NC(=O)[C@H](CC(=O)O)NC(=O)[C@H](CO)NC(=O)[C@@H](NC(=O)[C@](C)(Cc1ccccc1F)NC(=O)[C@@H](NC(=O)CNC(=O)[C@H](CCC(=O)O)NC(=O)C(C)(C)NC(=O)[C@@H](N)Cc1ccc(O)cc1)[C@@H](C)O)[C@@H](C)O)[C@@H](C)CC)[C@@H](C)CC)C(=O)N[C@@H](CCC(=O)O)C(=O)NCC(=O)NCC(=O)N1CCC[C@H]1C(=O)N[C@@H](CO)C(=O)N[C@@H](CO)C(=O)NCC(=O)N[C@@H](C)C(=O)N1CCC[C@H]1C(=O)N1CCC[C@H]1C(=O)N1CCC[C@H]1C(=O)N[C@@H](CO)C(N)=O` [Example 366] yielded an Emax (hGLP-1R; HEK293, cAMP, 37° C., 0.1% bovine casein and 1.0% human serum albumin, read-out: hGLP-1R Emax, % ± SEM) of 98.3%, an Emax (hGLP-1R; HEK293, cAMP, 37° C., 0.1% bovine casein, arithmetic mean, read-out: hGLP-1R Emax, % ± SEM) of 89.6% and an EC50 (hGLP-1R; 37° C., read-out: hGLP-1R EC50, nM (SEM, n)) of 0.279 nM. For the same molecule, the EC50 (hGCGR; cAMP, 37° C., 0.1% bovine casein (no human serum albumin), geometric mean, read-out: hGCGR EC50, nM (SEM, n)) was greater than 9950 nM, the EC50 (hGCGR; cAMP, 37° C., 0.1% bovine casein and 1.0% human serum albumin, geometric mean (SEM, n), read-out: hGCGR EC50, nM (SEM, n)) was greater than 9950 nM and the Emax (hGIPR; HEK293, cAMP, 37° C., 0.1% bovine casein and 1.0% human serum albumin, percent of maximal response to GIP(1-42)NH2, read-out: hGIPR Emax, % ± SEM) was 95.9%. For the same molecule, the EC50 (hGIPR; 37° C., 0.1% bovine casein (no human serum albumin), geometric mean, read-out: hGIPR EC50, nM (SEM, n)) was 0.0162 nM.
`CC[C@H](C)[C@H](NC(=O)[C@H](CCCN)NC(=O)[C@H](CC(=O)O)NC(=O)[C@H](CC(C)C)NC(=O)[C@](C)(CC(C)C)NC(=O)[C@@H](NC(=O)C(C)(C)NC(=O)[C@H](Cc1ccncc1)NC(=O)[C@H](CC(=O)O)NC(=O)[C@H](CO)NC(=O)[C@@H](NC(=O)[C@](C)(Cc1ccccc1F)NC(=O)[C@@H](NC(=O)CNC(=O)[C@H](CCC(=O)O)NC(=O)C(C)(C)NC(=O)[C@@H](N)Cc1ccc(O)cc1)[C@@H](C)O)[C@@H](C)O)[C@@H](C)CC)C(=O)N[C@@H](C)C(=O)N[C@@H](CCC(N)=O)C(=O)NC(C)(C)C(=O)N[C@@H](CCCCNC(=O)COCCOCCNC(=O)COCCOCCNC(=O)CC[C@H](NC(=O)CCCCCCCCCOc1ccc(C(=O)O)cc1)C(=O)O)C(=O)N[C@@H](Cc1ccccc1)C(=O)N[C@H](C(=O)N[C@H](CCC(=O)O)C(=O)N[C@@](C)(Cc1ccc(O)cc1)C(=O)N[C@@H](CC(C)C)C(=O)N[C@H](C(=O)N[C@@H](CCCCNC(=O)COCCOCCNC(=O)COCCOCCNC(=O)CC[C@H](NC(=O)CCCCCCCCCOc1ccc(C(=O)O)cc1)C(=O)O)C(=O)NCC(=O)NCC(=O)N1CCC[C@H]1C(=O)N[C@@H](CO)C(=O)N[C@@H](CO)C(=O)NCC(=O)N[C@@H](C)C(=O)N1CCC[C@H]1C(=O)N1CCC[C@H]1C(=O)N1CCC[C@H]1C(=O)N[C@@H](CO)C(N)=O)[C@@H](C)CC)[C@@H](C)CC` [Example 247] gave an Emax (hGLP-1R; HEK293, read-out: hGLP-1R Emax, % ± SEM, 0.1% bovine casein and 1.0% human serum albumin, 37° C.) of 109%, an EC50 (hGLP-1R; hGLP-1R EC50, nM (SEM, n), incubated at 37° C.) of 1 nM and an EC50 (hGCGR; hGCGR EC50, nM (SEM, n), 0.1% bovine casein and 1.0% human serum albumin, 37° C., geometric mean) greater than 9950 nM. The EC50 (hGCGR; hGCGR EC50, nM (SEM, n), cAMP, incubated at 37° C., 0.1% bovine casein (no human serum albumin), geometric mean) was greater than 9950 nM, the Emax (hGIPR; HEK293, read-out: hGIPR Emax, % ± SEM, 0.1% bovine casein and 1.0% human serum albumin, 37° C., percent of maximal response to GIP(1-42)NH2) was 90.2% and the EC50 (hGIPR; hGIPR EC50, nM (SEM, n), incubated at 37° C., 0.1% bovine casein (no human serum albumin), geometric mean) was 0.022 nM.
Work on `CC[C@H](C)[C@H](NC(=O)[C@H](CC(C)C)NC(=O)[C@](C)(Cc1ccc(O)cc1)NC(=O)[C@@H](CCC(=O)O)NC(=O)[C@@H](NC(=O)[C@H](Cc1ccccc1)NC(=O)[C@H](CCC(=O)O)NC(=O)C1(NC(=O)[C@H](CCC(N)=O)NC(=O)[C@H](C)NC(=O)[C@H](CCCCNC(=O)COCCOCCNC(=O)COCCOCCNC(=O)CC[C@H](NC(=O)CCCCCCCCCCCCC(=O)O)C(=O)O)NC(=O)[C@H](CCCN)NC(=O)[C@H](CC(=O)O)NC(=O)[C@H](CC(C)C)NC(=O)[C@](C)(CC(C)C)NC(=O)[C@@H](NC(=O)[C@H](CO)NC(=O)[C@H](Cc2ccncc2)NC(=O)[C@H](CC(=O)O)NC(=O)[C@H](CO)NC(=O)[C@@H](NC(=O)[C@](C)(Cc2ccccc2F)NC(=O)[C@@H](NC(=O)CNC(=O)[C@H](CCC(=O)O)NC(=O)C(C)(C)NC(=O)[C@@H](N)Cc2ccc(O)cc2)[C@@H](C)O)[C@@H](C)O)[C@@H](C)CC)CCCC1)[C@@H](C)CC)C(=O)N[C@@H](CCC(=O)O)C(=O)NCC(=O)NCC(=O)N[C@@H](CCCCNC(=O)COCCOCCNC(=O)COCCOCCNC(=O)CC[C@H](NC(=O)CCCCCCCCCCCCC(=O)O)C(=O)O)C(=O)N[C@@H](CO)C(=O)N[C@@H](CO)C(=O)NCC(=O)N[C@@H](C)C(=O)N1CCC[C@H]1C(=O)N1CCC[C@H]1C(=O)N1CCC[C@H]1C(=O)N[C@@H](CO)C(N)=O` [Example 170] yielded an EC50 (hGLP-1R; incubated at 37° C., read-out: hGLP-1R EC50, nM (SEM, n)) of 1.03 nM, an EC50 (hGCGR; cAMP, incubated at 37° C., 0.1% bovine casein (no human serum albumin), geometric mean, read-out: hGCGR EC50, nM (SEM, n)) greater than 9950 nM and an Emax (hGIPR; HEK293, percent of maximal response to GIP(1-42)NH2, 37° C., 0.1% bovine casein, arithmetic mean, read-out: hGIPR Emax, % ± SEM) of 93.9%.
Molecule `CC[C@H](C)[C@H](NC(=O)[C@H](CC(C)C)NC(=O)[C@](C)(Cc1ccc(O)cc1)NC(=O)[C@H](CCCCNC(=O)CCCCCCCNC(=O)COCCOCCNC(=O)CC[C@H](NC(=O)CCCCCCCCCOc1ccc(C(=O)O)cc1)C(=O)O)NC(=O)[C@@H](NC(=O)[C@H](Cc1ccccc1)NC(=O)[C@H](CCCN)NC(=O)C(C)(C)NC(=O)[C@H](CCC(N)=O)NC(=O)[C@H](C)NC(=O)[C@H](CCC(N)=O)NC(=O)[C@H](CCCN)NC(=O)[C@H](CC(=O)O)NC(=O)[C@H](CC(C)C)NC(=O)[C@](C)(CC(C)C)NC(=O)[C@@H](NC(=O)C(C)(C)NC(=O)[C@H](Cc1ccncc1)NC(=O)[C@H](CC(=O)O)NC(=O)[C@H](CO)NC(=O)[C@@H](NC(=O)[C@](C)(Cc1ccccc1F)NC(=O)[C@@H](NC(=O)CNC(=O)[C@H](CCC(=O)O)NC(=O)C(C)(C)NC(=O)[C@@H](N)Cc1ccc(O)cc1)[C@@H](C)O)[C@@H](C)O)[C@@H](C)CC)[C@@H](C)CC)C(=O)N[C@@H](CCCCNC(=O)CCCCCCCNC(=O)COCCOCCNC(=O)CC[C@H](NC(=O)CCCCCCCCCOc1ccc(C(=O)O)cc1)C(=O)O)C(=O)NCC(=O)NCC(=O)N1CCC[C@H]1C(=O)N[C@@H](CO)C(=O)N[C@@H](CO)C(=O)NCC(=O)N[C@@H](C)C(=O)N1CCC[C@H]1C(=O)N1CCC[C@H]1C(=O)N1CCC[C@H]1C(=O)N[C@@H](CO)C(N)=O` [Example 456] has an Emax (hGLP-1R; HEK293, read-out: hGLP-1R Emax, % ± SEM, cAMP, 37° C., 0.1% bovine casein and 1.0% human serum albumin) of 112%, an Emax (hGLP-1R; HEK293, read-out: hGLP-1R Emax, % ± SEM, cAMP, 37° C., 0.1% bovine casein, arithmetic mean) of 116% and an EC50 (hGLP-1R; hGLP-1R EC50, nM (SEM, n), 37° C.) of 0.341 nM. The EC50 (hGCGR; hGCGR EC50, nM (SEM, n), cAMP, 37° C., 0.1% bovine casein (no human serum albumin), geometric mean) was greater than 9950 nM, the EC50 (hGCGR; hGCGR EC50, nM (SEM, n), cAMP, 37° C., 0.1% bovine casein and 1.0% human serum albumin, geometric mean (SEM, n)) was greater than 9950 nM and the Emax (hGIPR; HEK293, read-out: hGIPR Emax, % ± SEM, cAMP, 37° C., 0.1% bovine casein and 1.0% human serum albumin, percent of maximal response to GIP(1-42)NH2) was 94.7%. It also gave an EC50 (hGIPR; hGIPR EC50, nM (SEM, n), 37° C., 0.1% bovine casein (no human serum albumin), geometric mean) of 0.0236 nM and an EC50 (hGIPR; hGIPR EC50, nM (SEM, n), 37° C., 0.1% bovine casein and 1.0% human serum albumin, geometric mean (SEM, n)) of 0.878 nM.
